Assay results: patent US20070071794A1, “DRUGS FOR TREATING DIABETES” (priority 2004, published 2007)

Experiments:
[1] = tested on: INS-1 cells derived from pancreatic β cells of rats; assay: Effect of improving insulin secretion defects in INS-1 cells cultured under high glucose; assay type: cell-based; settings: for Index of insulin secretion improvement: 25 mM glucose 28 h, then 11.1 mM glucose + amino acid at 10 times RPMI concentration 19 h, secretion in 16.7 mM glucose 2 h, 0 = defective cond., 1 = ordinary cond.; for improvement in insulin secretion defects (significance): secretion defective + amino acid condition, p<0.05
Source text: INS-1 cells derived from pancreatic β cells of rats were dispersed in each amount of 2×10^5 cells on a 24-well culture plate, then divided into three groups and cultured under the following conditions. That is:
First Group: Culture on RPMI medium (Non-patent Literature 4) under the ordinary condition.
Second Group: Culture under the secretion defective condition by culture under the high glucose concentration. That is, the glucose concentration was increased under the culture conditions of the first group.
Third Group: Under the culture condition of the second group, culture was conducted so that the end concentration of aspartic acid, cystine, serine, asparagine, isoleucine, histidine, hydroxyproline, glutamic acid or valine in the medium became 10 times as high as the concentration thereof in the RPMI medium.
First Group: ordinary condition
• cultured in 11.1 mM glucose for 28 hours, • cultured in 11.1 mM glucose for 19 hours Second Group: secretion defective condition • cultured in 25 mM glucose for 28 hours, • cultured in 11.1 mM glucose for 19 hours Third Group: secretion defective+amino acid condition • cultured in 25 mM glucose for 28 hours,
cultured in 11.1 mM glucose+amino acids for 19 hours
Those cultured cells were further cultured for 1 hour in KRBH buffer (Non-patent Literature 5), and cultured for 2 hours in KRBH buffer containing 16.7 mM glucose. Then, insulin secretion rate was determined. Under the secretion defective condition of the second group, the insulin secretion rate of […] lowered to about 60% of that under the ordinary condition. The effect of improving insulin secretion defects of amino acids was calculated by the following index. Index of insulin secretion improvement=((insulin secretion of the third group)−(insulin secretion of the second group))/((insulin secretion of the first group)−(insulin secretion of the second group))
(Reference: The index of insulin secretion improvement becomes 0 when the insulin secretion in administration of amino acids is same as that in the secretion defective condition, and it becomes 1 when the insulin secretion in administration of amino acids is same as that in the ordinary condition.)

GK rats = assay: Glucose tolerance test in GK rats fed aspartic acid (blood glucose ΔAUC, insulinogenic index); assay type: in vivo; settings: for ΔAUC (blood glucose, glucose tolerance test): eighth week, oral 1 g/kg glucose after 5 hour fasting, CON group 230
Description: Male GK rats (7 weeks old) were fed in the following groups.
CON Group: 5 GK rats Controlled food was administered.
3AS Group: 5 GK rats Food with 3% aspartic acid was administered.
6AS Group: 5 GK rats Food with 6% aspartic acid was administered.
In the eighth week of administration, the glucose tolerance test (oral administration of 1 g/kg of glucose) was conducted to the rats after 5 hour fasting, and their blood glucose and insulin levels were determined over time.
Insulinogenic index was determined from the results of the glucose tolerance test after eight week administration in Example 2. Insulinogenic index is the value wherein the insulin rate secreted in 15 minutes after adding glucose was divided by the glucose level that increased in 15 minutes after adding glucose.

[2] = tested on: INS-1 cells derived from pancreatic β cells of rats; assay: Insulin secretion of INS-1 cells with aspartic acid combined with an insulin secretagogue; assay type: cell-based; settings: 5 mM glucose, 2 hours; for insulin secretion rate: n=3, Cond. 1 (no drug) 2.85±0.49; for insulin secretion increase (significance, in words): KRBH buffer, 0.3 μM nateglinide and/or 10 mM aspartic acid, compared to Condition 1 (combination also to Conditions 2, 3)
Description: INS-1 cells derived from pancreatic β cells of rats were dispersed in each amount of 2×10^5 cells on a 24-well culture plate, and cultured on RPMI medium for 48 hours. […] Condition 1: KRBH buffer, 5 mM glucose Condition 2: KRBH buffer, 5 mM glucose, 0.3 μM nateglinide Condition 3: […] Condition 4: […]

Structure (SMILES)	Index of insulin secretion improvement [1]	improvement in insulin secretion defects (significance) [1]	also measured
O=C(O)[C@@H]1C[C@@H](O)CN1 [Hydroxyproline, hydroxyproline]	0.64	significantly improved	–
CC(C)C[C@H](N)C(=O)O [leucine, reference compound]	–	significant improvement in insulin secretion defects was not confirmed	–
N[C@@H](CCC(=O)O)C(=O)O [Glu, glutamic acid]	0.57	significantly improved	–
N[C@@H](CSSC[C@H](N)C(=O)O)C(=O)O [Cystine, cystine]	1.08	significantly improved	–
N[C@@H](Cc1c[nH]cn1)C(=O)O [His, histidine]	0.67	significantly improved	–
NC(=O)C[C@H](N)C(=O)O [Asn, asparagine]	0.87	significantly improved	–
NCCCC[C@H](N)C(=O)O [lysine, reference compound]	–	significant improvement in insulin secretion defects was not confirmed	–
N[C@@H](CC(=O)O)C(=O)O [Asp, L-aspartic acid]	1.75	significantly improved	ΔAUC (blood glucose, glucose tolerance test) (GK rats; 3AS group: food with 3% aspartic acid): 190 mg·h/dL; ΔAUC (blood glucose, glucose tolerance test) (GK rats; 6AS group: food with 6% aspartic acid): 140 mg·h/dL; Insulinogenic index (result in words) (GK rats; food with 3% or 6% aspartic acid, eight weeks, insulin secreted / glucose increase in 15 minutes after glucose): improved corresponding to the administered dose; glucose tolerance (result in words) (GK rats; food with 6% aspartic acid, after eight week administration): improvement in the glucose tolerance was seen; insulin secretion rate ([2]; Condition 3: KRBH buffer, 10 mM aspartic acid): 3.69 ± 0.87 ng/mL; insulin secretion increase (significance, in words) [2]: significant insulin secretion increase was not seen
CC(C)[C@H](N)C(=O)O [Val, valine]	0.35	significantly improved	–
CC[C@H](C)[C@H](N)C(=O)O [Ile, isoleucine]	0.84	significantly improved	–
CC(C)[C@H]1CC[C@H](C(=O)N[C@H](Cc2ccccc2)C(=O)O)CC1 [nateglinide, reference compound]	–	–	insulin secretion rate ([2]; Condition 2: KRBH buffer, 0.3 μM nateglinide): 4.34 ± 1.19 ng/mL; insulin secretion increase (significance, in words) [2]: significant insulin secretion increase was not seen
N=C(N)NCCC[C@H](N)C(=O)O [arginine, reference compound]	–	significant improvement in insulin secretion defects was not confirmed	–
N[C@@H](CO)C(=O)O [Ser, serine]	0.97	significantly improved	–
